Data as given in patent publication US20180111949A1, “NOVEL INDUSTRIAL CRYSTALLIZATION METHOD OF CEFUROXIME SODIUM AND PREPARATION THEREOF” (HAINAN LINGKANG PHARMACEUTICAL CO., LTD, priority 2016, published 2018).
Several values for one entry are separate records, joined by “and”; a condition that tells them apart may be missing. Identical values can stand only once.

Legend:
[1] = Flowability test, angle of repose by funnel method; assay type: physicochemical; settings: refined Cefuroxime Sodium prepared in Example 1
Experimental: In order to examine the flowability of the refined Cefuroxime Sodium prepared in Example 1, the angle of repose was measured by a funnel method. Test method: The particles were placed in a fixed funnel, and were […] freely to a horizontal plane to form a disk-shaped stacked body with a bottom radius of r, and the height of the stacked body was measured as H. The results were calculated according to the equation of tan θ=H/r and were shown in the following table: […]

[2] = cited from earlier work
[3] = Abnormal toxicity, quality research per Chinese Pharmacopoeia 2010 Part 2; settings: compliance with pharmacopoeia standard
Experimental: (§1) Referring to the quality standard of the raw material in “Part 2 of Chinese Pharmacopoeia 2010 Edition”, the quality research on crystalline powder of Cefuroxime Sodium was conducted in Example 1˜4 and Comparative Example 1, and the results were shown as follows: […]

[4] = pH, quality research per Chinese Pharmacopoeia 2010 Part 2; assay type: physicochemical; settings: crystalline powder
Experimental: as §1

[5] = Clarity of the solution, quality research per Chinese Pharmacopoeia 2010 Part 2; assay type: physicochemical; settings: compliance with pharmacopoeia standard
Experimental: as §1

[6] = Bacterial endotoxin, quality research per Chinese Pharmacopoeia 2010 Part 2; settings: compliance with pharmacopoeia standard
Experimental: as §1

[7] = Color of the solution, quality research per Chinese Pharmacopoeia 2010 Part 2; assay type: physicochemical; settings: compliance with pharmacopoeia standard
Experimental: as §1

Row | Structure (SMILES) | Angle of repose θ, average value ([1]; average of three measurements) [°] | Angle of repose θ ([1]; single measurements, funnel method) | Solubility in chloroform ([2]; chloroform) | Solubility in ethanol ([2]; ethanol) | Solubility in methanol ([2]; methanol) | Solubility in water ([2]; water) | Abnormal toxicity [3] | pH [4] | Clarity of the solution [5] | Bacterial endotoxin [6] | Color of the solution [7]
1 | CO/N=C(\C(=O)N[C@@H]1C(=O)N2C(C(=O)[O-])=C(COC(N)=O)CS[C@H]12)c1ccco1.[Na+] [Cefuroxime Sodium, Sodium (6R, 7R)-7-[2-furyl (methoxyimino)acetylamino]-3-carbamoyloxymethyl-8-oxo-5-thia-1-azabicyclo [4.2.0]oct-2-ene-2-carboxylate] | 26.1 | 25.9° and 26.1° and 26.2° | insoluble | insoluble | slightly soluble | soluble | – | – | – | – | –
2 | CO/N=C(\C(=O)N[C@@H]1C(=O)N2C(C(=O)[O-])=C(COC(N)=O)CS[C@H]12)c1ccco1.[Na+] [Comparative Example 1, Cefuroxime Sodium] | – | – | – | – | – | – | Compliance | pH = 7.5 | Compliance | Compliance | –
3 | CO/N=C(\C(=O)N[C@@H]1C(=O)N2C(C(=O)[O-])=C(COC(N)=O)CS[C@H]12)c1ccco1.[Na+] [Example 1, Cefuroxime Sodium] | – | – | – | – | – | – | Compliance | pH = 7.3 | Compliance | Compliance | Compliance
4 | CO/N=C(\C(=O)N[C@@H]1C(=O)N2C(C(=O)[O-])=C(COC(N)=O)CS[C@H]12)c1ccco1.[Na+] [Example 2, Cefuroxime Sodium] | – | – | – | – | – | – | Compliance | pH = 7.5 | Compliance | Compliance | Compliance
5 | CO/N=C(\C(=O)N[C@@H]1C(=O)N2C(C(=O)[O-])=C(COC(N)=O)CS[C@H]12)c1ccco1.[Na+] [Example 3, Cefuroxime Sodium] | – | – | – | – | – | – | Compliance | pH = 7.4 | Compliance | Compliance | Compliance
6 | CO/N=C(\C(=O)N[C@@H]1C(=O)N2C(C(=O)[O-])=C(COC(N)=O)CS[C@H]12)c1ccco1.[Na+] [Example 4, Cefuroxime Sodium] | – | – | – | – | – | – | Compliance | pH = 7.0 | Compliance | Compliance | Compliance
